Laboratory results reported in patent US20240368135A1 (VERTEX PHARMACEUTICALS INCORPORATED, priority 2021, published 2024).

Biological target: human NaV 1.8 (Homo sapiens, UniProt Q9Y5Y9)
Assay: E-VIPR assay detecting and measuring NaV inhibition properties
Type: cell-based
Conditions: HEK cells expressing truncated human NaV 1.8; in the presence of human serum (compound numbers followed by *); read-out: IC50 in the E-VIPR Assay, performed in the presence of human serum
Procedure, shortened: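 HEK cells expressing truncated, fully active human NaV1.8, with KIR2.1 BacMam co-transduction, were loaded with CC2-DMPE/DiSBAC6(3) voltage-sensing dyes for 20 min at room temperature. Compounds were tested in 11-point 3-fold dilutions (300 nM top final), optionally with 25% human serum, under electrical stimulation with FRET read-out.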

human NaV 1.8, sequence (Q9Y5Y9 126-399 limits assumed): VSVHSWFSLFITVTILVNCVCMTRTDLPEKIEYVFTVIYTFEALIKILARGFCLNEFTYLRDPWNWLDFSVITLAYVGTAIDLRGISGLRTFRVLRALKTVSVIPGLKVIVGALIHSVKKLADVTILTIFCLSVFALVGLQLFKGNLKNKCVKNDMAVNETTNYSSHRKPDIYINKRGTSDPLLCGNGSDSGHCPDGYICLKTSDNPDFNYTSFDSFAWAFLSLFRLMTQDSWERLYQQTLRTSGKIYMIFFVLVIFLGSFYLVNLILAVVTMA
human NaV 1.8, sequence (Q9Y5Y9 660-890 limits assumed): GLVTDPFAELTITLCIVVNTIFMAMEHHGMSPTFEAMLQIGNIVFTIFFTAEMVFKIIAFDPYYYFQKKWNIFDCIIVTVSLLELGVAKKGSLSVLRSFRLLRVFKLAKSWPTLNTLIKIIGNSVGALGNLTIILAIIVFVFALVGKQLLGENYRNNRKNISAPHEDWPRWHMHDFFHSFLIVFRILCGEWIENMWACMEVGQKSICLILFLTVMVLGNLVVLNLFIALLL
human NaV 1.8, sequence (Q9Y5Y9 1148-1722 limits assumed): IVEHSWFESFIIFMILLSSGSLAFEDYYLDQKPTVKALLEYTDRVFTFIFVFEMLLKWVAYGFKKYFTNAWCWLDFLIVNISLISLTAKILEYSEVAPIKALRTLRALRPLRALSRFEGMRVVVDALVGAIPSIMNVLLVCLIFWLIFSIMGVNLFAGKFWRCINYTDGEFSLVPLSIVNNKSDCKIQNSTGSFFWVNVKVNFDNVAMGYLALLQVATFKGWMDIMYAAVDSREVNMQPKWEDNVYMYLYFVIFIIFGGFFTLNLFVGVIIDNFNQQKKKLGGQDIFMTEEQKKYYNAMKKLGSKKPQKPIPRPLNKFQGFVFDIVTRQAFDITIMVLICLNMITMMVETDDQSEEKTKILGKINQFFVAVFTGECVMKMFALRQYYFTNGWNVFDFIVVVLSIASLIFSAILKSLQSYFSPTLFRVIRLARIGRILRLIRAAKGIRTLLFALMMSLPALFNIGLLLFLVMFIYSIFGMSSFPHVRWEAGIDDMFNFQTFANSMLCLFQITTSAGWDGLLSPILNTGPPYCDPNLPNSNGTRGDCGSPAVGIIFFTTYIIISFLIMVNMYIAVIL

Question: For `COc1c(C2CC(C)(C(F)(F)F)OC2C(=O)Nc2ccnc(C(O)C(C)O)c2)ccc(F)c1F` (single isomer, unassigned) [Compound 696], which IC50 is on record?
Answer: Its IC50 is 10 to 100 nM.

Question: For `C[C@H]1[C@@H](c2ccc(F)c(F)c2OC(F)F)[C@H](C(=O)Nc2cccnc2)O[C@@]1(C)C(F)(F)F` (single isomer, unassigned) [Compound 65], which IC50 is on record?
Answer: The IC50 was 10 to 100 nM.

Question: Which IC50 does the source give for `COc1cc(F)ccc1C1CC(C)(C(F)(F)F)OC1C(=O)Nc1ccnc(S(C)(=N)=O)c1` (centres unmarked) [Compound 715, 3-(4-fluoro-2-methoxy-phenyl)-5-methyl-N-[2-(methylsulfonimidoyl)-4-pyridyl]-5-(trifluoromethyl)tetrahydrofuran-2-carboxamide] here?
Answer: Its IC50 is 100 to 1000 nM.

Question: Which IC50 does the source give for `COc1c([C@@H]2[C@@H](C(=O)Nc3ccnc(C(C)O)c3)O[C@](C)(C(F)(F)F)[C@@H]2C)ccc(F)c1F` (single isomer, unassigned) [Compound 531] here?
Answer: The IC50 was at least 1000 nM.

Same assay, conditions: HEK cells expressing truncated human NaV 1.8; no human serum; read-out: IC50 in the E-VIPR Assay

Question: Which IC50 does the source give for `COCCCOc1c([C@H]2[C@H](C(=O)Nc3ccnc(CO)c3)O[C@@](C)(C(F)(F)F)[C@H]2C)ccc(F)c1F` [Compound 642, (2R,3S,4S,5R)-3-(3,4-difluoro-2-(3-methoxypropoxy)phenyl)-N-(2-(hydroxymethyl)pyridin-4-yl)-4,5-dimethyl-5-(trifluoromethyl)tetrahydrofuran-2-carboxamide] here?
Answer: Its IC50 is under 10 nM.

Question: Which IC50 does the source give for `COc1c([C@H]2[C@H](C(=O)Nc3ccnc(C(O)C(F)F)c3)O[C@@](C)(C(F)(F)F)[C@H]2C)ccc(F)c1F` (single isomer, unassigned) [Compound 254, rel-(2R*,3S*,4S*,5R*)-N-(2-(2,2-difluoro-1-hydroxyethyl)pyridin-4-yl)-3-(3,4-difluoro-2-methoxyphenyl)-4,5-dimethyl-5-(trifluoromethyl)tetrahydrofuran-2-carboxamide] here?
Answer: Its IC50 is under 10 nM.

Question: For `C[C@H]1[C@@H](c2ccc(F)c(F)c2OCCN=S(C)(C)=O)[C@H](C(=O)Nc2ccnc(CO)c2)O[C@@]1(C)C(F)(F)F` [Compound 640, (2R,3S,4S,5R)-3-(2-(2-((dimethyl(oxo)-λ^6-sulfaneylidene)amino)ethoxy)-3,4-difluorophenyl)-N-(2-(hydroxymethyl)pyridin-4-yl)-4,5-dimethyl-5-(trifluoromethyl)tetrahydrofuran-2-carboxamide], which IC50 is on record?
Answer: The IC50 was 10 to 100 nM.

Question: How did the IC50 turn out when `COCCOc1c([C@H]2[C@H](C(=O)Nc3ccc4nncn4c3)O[C@@](C)(C(F)(F)F)[C@H]2C)ccc(F)c1F` [Compound 577, (2R,3S,4S,5R)-3-[3,4-difluoro-2-(2-methoxyethoxy)phenyl]-4,5-dimethyl-N-([1,2,4]triazolo[4,3-a]pyridin-6-yl)-5-(trifluoromethyl)tetrahydrofuran-2-carboxamide] was run?
Answer: The IC50 was under 10 nM.

Question: Which IC50 does the source give for `C[C@H]1[C@@H](c2ccc(F)c(F)c2OCCN2CC3(COC3)C2)[C@H](C(=O)Nc2ccnc(CO)c2)O[C@@]1(C)C(F)(F)F` [Compound 618, (2R,3S,4S,5R)-3-(2-(2-(2-oxa-6-azaspiro[3.3]heptan-6-yl)ethoxy)-3,4-difluorophenyl)-N-(2-(hydroxymethyl)pyridin-4-yl)-4,5-dimethyl-5-(trifluoromethyl)tetrahydrofuran-2-carboxamide] here?
Answer: Its IC50 is 10 to 100 nM.

Question: Which IC50 does the source give for `COc1c([C@H]2[C@H](C(=O)Nc3ccc(CC4CCOCC4)nc3)O[C@@](C)(C(F)(F)F)[C@H]2C)ccc(F)c1F` [Compound 404, (2R,3S,4S,5R)-3-(3,4-difluoro-2-methoxyphenyl)-4,5-dimethyl-N-(6-((tetrahydro-2H-pyran-4-yl)methyl)pyridin-3-yl)-5-(trifluoromethyl)-tetrahydrofuran-2-carboxamide] here?
Answer: The IC50 was 100 to 1000 nM.

Question: With `COc1c([C@H]2[C@H](C(=O)Nc3ccnc(C(C)(O)CO)c3)OC(C)(C)[C@H]2C)ccc(F)c1F` (single isomer, unassigned) [Compound 732] as the compound, how does the IC50 read?
Answer: Its IC50 is 10 to 100 nM.

Question: Which IC50 does the source give for `COCc1c(F)ccc([C@H]2[C@H](C(=O)Nc3ccc(C(N)=O)nc3)O[C@@](C)(C(F)(F)F)[C@H]2C)c1OC` (stereo in doubt) [Compound 179, rel-5-((2R,3S,4S,5R)-3-(4-fluoro-2-methoxy-3-(methoxymethyl)phenyl)-4,5-dimethyl-5-(trifluoromethyl)tetrahydrofuran-2-carboxamido)picolinamide] here?
Answer: The IC50 was 10 to 100 nM.

Question: How did the IC50 turn out when `C[C@H]1[C@@H](c2ccc(F)c(F)c2OCCO)[C@H](C(=O)Nc2ccnn2C)O[C@@]1(C)C(F)(F)F` [Compound 547, (2R,3S,4S,5R)-3-(3,4-difluoro-2-(2-hydroxyethoxy)phenyl)-4,5-dimethyl-N-(1-methyl-1H-pyrazol-5-yl)-5-(trifluoromethyl)tetrahydrofuran-2-carboxamide] was run?
Answer: Its IC50 is 100 to 1000 nM.

Question: With `COc1c([C@H]2[C@H](C(=O)Nc3ccnc(CN4CCC(F)(F)C4)c3)O[C@@](C)(C(F)(F)F)[C@H]2C)ccc(F)c1F` [Compound 182, (2R,3S,4S,5R)-3-(3,4-difluoro-2-methoxyphenyl)-N-(2-((3,3-difluoropyrrolidin-1-yl)methyl)pyridin-4-yl)-4,5-dimethyl-5-(trifluoromethyl)tetrahydrofuran-2-carboxamide] as the compound, how does the IC50 read?
Answer: The IC50 was 10 to 100 nM.

Question: `COc1c([C@H]2[C@H](C(=O)Nc3ccc(-c4ncco4)nc3)O[C@@](C)(C(F)(F)F)[C@H]2C)ccc(F)c1F` [Compound 399, (2R,3S,4S,5R)-3-(3,4-difluoro-2-methoxyphenyl)-4,5-dimethyl-N-(6-(oxazol-2-yl)pyridin-3-yl)-5-(trifluoromethyl)-tetrahydrofuran-2-carboxamide] was tested. Which IC50 did it give?
Answer: The IC50 was 10 to 100 nM.

Question: With `COc1c(C2C(C(=O)Nc3ccnc(C(O)CF)c3)OC(C)(C(F)(F)F)C2C)ccc(F)c1F` (single isomer, unassigned) [Compound 252, rel-(2R*,3S*,4S*,5R*)-3-(3,4-difluoro-2-methoxyphenyl)-N-(2-(2-fluoro-1-hydroxyethyl)pyridin-4-y1)-4,5-dimethyl-5-(trifluoromethyl)tetrahydrofuran-2-carboxamide] as the compound, how does the IC50 read?
Answer: The IC50 was under 10 nM.

Question: `COc1c([C@H]2[C@H](C(=O)Nc3ccnc(C(F)CO)c3)O[C@@](C)(C(F)(F)F)[C@H]2C)ccc(F)c1F` (single isomer, unassigned) [Compound 439, rel-(2R*,3S*,4S*,5R*)-3-(3,4-difluoro-2-methoxyphenyl)-N-(2-(1-fluoro-2-hydroxyethyl)pyridin-4-yl)-4,5-dimethyl-5-(trifluoromethyl)tetrahydrofuran-2-carboxamide] was tested. Which IC50 did it give?
Answer: Its IC50 is under 10 nM.

Question: Which IC50 does the source give for `COc1c(C2C(C(=O)Nc3ccnc(S(C)(=N)=O)c3)OC(C)(C(F)(F)F)C2C)ccc(F)c1F` (single isomer, unassigned) [Compound 56, 3-(3,4-difluoro-2-methoxy-phenyl)-4,5-dimethyl-N-[2-(methylsulfonimidoyl)-4-pyridyl]-5-(trifluoromethyl)tetrahydrofuran-2-carboxamide] here?
Answer: Its IC50 is 100 to 1000 nM.

Question: For `C[C@H]1[C@@H](c2ccc(F)c(F)c2OCCO)[C@H](C(=O)Nc2ncnc3c2cnn3C(C)(C)C)O[C@@]1(C)C(F)(F)F` [Compound 563, (2R,3S,4S,5R)-N-(1-(tert-butyl)-1H-pyrazolo[3,4-d]pyrimidin-4-yl)-3-(3,4-difluoro-2-(2-hydroxyethoxy)phenyl)-4,5-dimethyl-5-(trifluoromethyl)tetrahydrofuran-2-carboxamide], which IC50 is on record?
Answer: Its IC50 is at least 1000 nM.

Question: With `Cc1nn(C(F)F)cc1NC(=O)[C@@H]1O[C@@](C)(C(F)(F)F)[C@@H](C)[C@H]1c1ccc(F)c(F)c1OCCN1CC2(COC2)C1` [Compound 598, (2R,3S,4S,5R)-3-(2-(2-(2-oxa-6-azaspiro[3.3]heptan-6-yl)ethoxy)-3,4-difluorophenyl)-N-(1-(difluoromethyl)-3-methyl-1H-pyrazol-4-yl)-4,5-dimethyl-5-(trifluoromethyl)tetrahydrofuran-2-carboxamide] as the compound, how does the IC50 read?
Answer: Its IC50 is 10 to 100 nM.

Question: Which IC50 does the source give for `COc1c([C@H]2[C@H](C(=O)Nc3ccnc(N4CC(N)CC4=O)c3)O[C@@](C)(C(F)(F)F)[C@H]2C)ccc(F)c1F` (single isomer, unassigned) [Compound 495, rel-(2R*,3S*,4S*,5R*)-N-(2-(4-amino-2-oxopyrrolidin-1-yl)pyridin-4-yl)-3-(3,4-difluoro-2-methoxyphenyl)-4,5-dimethyl-5-(trifluoromethyl)tetrahydrofuran-2-carboxamide] here?
Answer: The IC50 was under 10 nM.

Question: `CCOc1c([C@H]2[C@H](C(=O)Nc3ccnc(S(C)(=O)=NC)c3)O[C@@](C)(C(F)(F)F)[C@H]2C)ccc(F)c1C` (single isomer, unassigned) [Compound 130] was tested. Which IC50 did it give?
Answer: The IC50 was under 10 nM.

Question: For `COc1c([C@@H]2[C@@H](C(=O)Nc3ccc(C(N)=O)nc3)O[C@](C)(C(F)(F)F)[C@@H]2C)ccc(F)c1C(F)F` (stereo in doubt) [Compound 169, rel-5-((2S,3R,4R,5S)-3-(3-(difluoromethyl)-4-fluoro-2-methoxyphenyl)-4,5-dimethyl-5-(trifluoromethyl)tetrahydrofuran-2-carboxamido)picolinamide], which IC50 is on record?
Answer: The IC50 was at least 1000 nM.

Question: `COc1c([C@H]2[C@H](C(=O)Nc3cncc(CO)c3)O[C@@](C)(C(F)(F)F)[C@H]2C)ccc(F)c1F` [Compound 383, (2R,3S,4S,5R)-3-(3,4-difluoro-2-methoxyphenyl)-N-(5-(hydroxymethyl)pyridin-3-yl)-4,5-dimethyl-5-(trifluoromethyl)tetrahydrofuran-2-carboxamide] was tested. Which IC50 did it give?
Answer: The IC50 was 10 to 100 nM.

Question: `COCCOc1c([C@H]2[C@H](C(=O)Nc3ccnc(CCO)c3)O[C@@](C)(C(F)(F)F)[C@H]2C)ccc(F)c1F` [Compound 648, (2R,3S,4S,5R)-3-[3,4-difluoro-2-(2-methoxyethoxy)phenyl]-N-[2-(2-hydroxyethyl)-4-pyridyl]-4,5-dimethyl-5-(trifluoromethyl)tetrahydrofuran-2-carboxamide] was tested. Which IC50 did it give?
Answer: Its IC50 is under 10 nM.

Question: With `COc1c([C@H]2[C@H](C(=O)Nc3ccnc(N4C(=O)[C@@H]5C[C@H]4CN5)c3)O[C@@](C)(C(F)(F)F)[C@H]2C)ccc(F)c1F` [Compound 483, (2R,3S,4S,5R)-3-(3,4-difluoro-2-methoxyphenyl)-4,5-dimethyl-N-(2-((1S,4S)-3-oxo-2,5-diazabicyclo[2.2.1]heptan-2-yl)pyridin-4-yl)-5-(trifluoromethyl)tetrahydrofuran-2-carboxamide] as the compound, how does the IC50 read?
Answer: Its IC50 is 10 to 100 nM.
